According to patent US10428151B2, “Treatment of hematologic malignancies with an anti-CXCR4 antibody” (BRISTOL-MYERS SQUIBB COMPANY, priority 2011, dated 2019):
Several values for one entry are separate records, joined by “and”; a condition that tells them apart may be missing. Equal values may be shown once.

How the values were obtained:
[1] = tested on: human peripheral blood mononuclear cells (PBMCs); assay: Flow cytometry binding to human PBMC subsets; conditions: 33 μg/ml; CD3+, CD20+, CD11b+, CD14+ subsets; vs isotype-matched control
Excerpt: Human PBMCs were isolated by standard methods and different cellular subsets were isolated by FACS. In particular, the following cellular subsets were isolated: (i) CD3^+, (ii) CD20^+; (iii) CD11b^+ and (iv) CD14^+.

[2] = tested on: human umbilical vein endothelial cells (HuVEC); assay: HuVEC capillary tube formation; type: cell-based; conditions: HuVEC on MATRIGEL, 18 hours
Protocol: In this example, the ability of the anti-CXCR4 human antibodies to inhibit capillary tube formation by human umbilical vein endothelial cells (HuVEC) was examined […]® was diluted 1:1 with RPMI and plated onto the wells of a 96 well plate and allowed to polymerize for 30 minutes at 37° C. HuVEC (from Cambrex, cat. # CC-2519) at 80% confluence were trypsinized and resuspended at 1×10^6 cells per ml in RPMI with 0.5% FBS. Antibodies were well mixed with HuVEC at a final concentration of 3 mg/ml and allowed to incubate at room temperature for 30 minutes. An irrelevant antibody of the same isotype or media alone was used as a negative control. As a positive control of inhibition of tube formation, a mouse anti-human αvβ3 (CD51/CD61) antibody (R&D Systems, cat. # MAB3050) was used. HuVEC with or without antibodies were plated onto the […]®-coated wells and incubated at 37° C. for 18 hours.
The HuVEC incubated with media alone or with the isotype-matched control antibody formed capillary tubes resulting in the appearance of connected cells across the plate with 3-5 points of connection or branch points per cell. […] The cells appeared isolated and with few or no branch points.

Ramos cells [3] = assay: Ramos cell proliferation, Cell-Titer-Glo; type: cell-based, human; conditions: 40 nM; 72 hours; compared to isotype control
Protocol: Ramos cells were suspended at 1×10^5 cells/mL in growth media, incubated with the relevant antibodies, including isotype controls, and other test agents and cultured for 72 hours at 37° C. Cell-Titer-Glo (Promega) was added to wells, mixed, and incubated at room temperature for 10 minutes. The plate was read on a GloMax Luminometer (Promega).

parental R1610 cells = assay: Apoptosis of parental R1610 cells, Annexin V-FITC/PI; type: cell-based, hamster; conditions: 24 hours
Protocol: MDX-1338 or isotype control were added to CXCR4-transfected cells (A) or R1610 parental cells (B) and stained with Annexin V-FITC and PI. The percentages of cells that were positive for Annexin V only or doubly positive for both Annexin V and PI double positive are illustrated.
The percent of cells that are positive for Annexin V only or both Annexin V and PI double positive was determined.

[4] = tested on: MDA-MB231 human breast cancer cells; assay: MDA-MB231 breast cancer xenograft; type: in vivo, mouse
Excerpt: In one experiment, 7.5×10^6 MDA-MB231 human breast cancer cells/mouse were implanted into the flank region of each mouse and allowed to grow to a mean size of 100 mm^3, calculated by length×width×height/2 of the tumors, which was day 7 post-implantation. The mice were randomized into different treatment groups and received an intraperitoneal (IP) injection of a first dose of antibody on day 7 post-implantation, received a second IP dose of antibody on day 14 post-implantation and then received a third dose on day 46 post-implantation. […] Tumor volumes were measured at regular intervals and the mean and median tumor volume determined for each treatment group at each interval.

[5] = tested on: DMS79 human small cell lung carcinoma cells; assay: DMS79 small cell lung carcinoma xenograft; type: in vivo, mouse; conditions: Day 34 post-implantation; 10 mg/kg IP Q3D×5
Protocol: In a second experiment, 5×10^6 DMS79 human small cell lung carcinoma cells/mouse were implanted into the flank region of each mouse and allowed to grow to a mean size of 160 mm^3, calculated by length×width×height/2 of the tumors, which was day 7 post-implantation. The mice were randomized into different treatment groups and received intraperitoneal (IP) injections of antibody on a dosing schedule of Q3D×5 (every three days for five times). […] Tumor volumes were measured at regular intervals and the mean and median tumor volume determined for each treatment group at each interval.

[6] = tested on: SU-DHL-6 B cell lymphoma cells; assay: SU-DHL-6 subcutaneous xenograft; type: in vivo, mouse
Protocol: (§1) Additional subcutaneous xenograft tumor models were tested for the ability of anti-CXCR4 antibodies to inhibit tumor growth, in experiments similar to those described above and in Example 9. […] Although the tumor cells in vivo were stainable by the mAb by immunohistochemistry, it is unclear at what stage of their tumor growth CXCR4 began to be expressed.

[7] = tested on: NIH-H226 lung carcinoma cells; assay: NIH-H226 subcutaneous xenograft; type: in vivo, mouse
Protocol: as §1

[8] = tested on: HPAC human pancreatic adenocarcinoma cells; assay: HPAC subcutaneous xenograft; type: in vivo, mouse
Protocol: as §1

Ramos cells [9] = assay: Ramos lymphoma xenograft in SCID mice; type: in vivo
Protocol: When a mean and median tumor size of 80 mm^3 was reached, the mice were randomized (n=8) according to tumor volume. […] Tumors and body weights were measured twice weekly. Tumor volumes were measured in three dimensions (L×W×H/2) with a Fowler Electronic Digital Caliper (Model 62379-531; Fred V. Fowler Co., Newton, Mass.), and data was electronically recorded using Study Director software from StudyLog Systems, Inc. (South San Francisco, Calif.). Animals were checked daily for postural, grooming, and respiratory changes, as well as lethargy. Mice were euthanized when the tumors reached the 2000 mm^3 endpoint or appeared ulcerated.

MOLP-8 cells = assay: MOLP-8 MM xenograft in SCID mice; type: in vivo
Protocol: In all the experiments, the mice were injected intraperitoneally on Days 0 and 7 with an IgG4 isotype control and a PBS vehicle control.

parental JJN-3 cells = assay: JJN-3 MM xenograft in SCID mice; type: in vivo; conditions: Day 25; compared to vehicle control; MDX-1338 10 mg/kg/dose IP, bortezomib 0.8 mg/kg/dose IV
Excerpt: 5 million JJN-3 cells/mouse were implanted into SCID mice and the mice were randomized into groups of 8 when the tumor volume reached approximately 77 mm^3.

KG-1 = KG-1 tumor growth inhibition (monotherapy); type: in vivo
MM cells = conditions: Roccaro et al., 2012; cited from earlier work
[10] = Day 59 post-implantation, 15 mg/kg IP

## BMS-936564: fully human anti-CXCR4 monoclonal antibody; VH SEQ ID NO: 25, VL SEQ ID NO: 29
[1]
  binding to PBMC subsets: capable of binding effectively to each of the four subsets
[2]
  inhibition of capillary tube formation: most effective in inhibiting capillary tube formation
Ramos cells [3]
  maximum inhibition of Ramos cell proliferation: about 50%
Parental R1610 cells
  apoptosis of parental R1610 cells: did not exhibit apoptosis
[4]; Day 52 post-implantation, 15 mg/kg IP
  Mean tumor volume: 79 mm^3
[4]; [10]
  Median tumor volume: 108 mm^3
  TGI (%) (median): 52%
[4]; day 59, n=9
  mice tumor free: one
[5]
  Mean tumor volume: 620 mm^3
  Median tumor volume: 599 mm^3
  TGI (%) (mean): 38%
[6]; DHL6
  % Tumor Growth Inhibition (Monotherapy): 55% and 77%
[6]; SU-DHL-6, 15 mg/kg
  tumor growth inhibition: approximately 60%
[7]
  tumor growth inhibition: no tumor growth inhibition
[8]
  tumor growth inhibition: no tumor growth inhibition
Ramos cells [9]; 15 mg/kg/dose IP Days 0 and 7
  time the inhibition was maintained: 60 days
Ramos cells [9]; Day 21, 15 mg/kg/dose IP Days 0 and 7
  median growth inhibition: 99%
Ramos cells [9]; Ramos
  % Tumor Growth Inhibition (Monotherapy): 80%
MOLP-8 cells; Day 25, 10 mg/kg/dose, compared to isotype antibody control, 10 mg/kg
  delay of mean tumor growth: 66% and 56%
MOLP-8 cells; MOLP8
  tumor growth inhibition: MDX-1338 = 56%
MOLP-8 cells; MOLP-8
  % Tumor Growth Inhibition (Monotherapy): 66%
MOLP-8 cells; day 42
  mice remained at end of study: 5 out of 8
Parental JJN-3 cells
  tumor growth inhibition: 52%
KG-1
  % Tumor Growth Inhibition (Monotherapy): 23%
MM cells
  migration of MM cells toward CXCL12 and primary MM BMSCs: inhibited migration
